Like-named read-outs stand apart in the source and are kept apart here.
Assays:
[1] = system: m6A in cellular mRNA of MOLM-13 cells; test: m6A-mRNA LC-MS/MS Assay (m6A cellular assay); format: cell-based; details: Homo sapiens, MOLM-13, read-out: m^6A IC50
Method: Cells were harvested by centrifugation followed by mRNA extraction using DIRECT Dynabeads mRNA DIRECT kit (Life Technologies). mRNA was quantified on NanoDrop spectrophotometer (Thermo Fisher Scientific) and digested into single nucleosides using Nucleoside Digestion Mix (New England Biolabs). […] Quantification is performed in comparison with the standard curve, obtained from pure nucleoside standards (Selleck Chemicals) running with the same batch of samples. Percentage m^6A in cellular mRNA is calculated as 100*(m^6A/A).

[2] = target: METTL1/WDR4 (Homo sapiens, UniProt Q9UBP6); test: METTL1 Assay (METTL1 biochemical assay)
Method in brief: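 Radiometric methyltransfer by METTL1/WDR4 (6.25 nM f.c., 5 min preincubation) at ambient temperature in HEPES pH 7.5, KCl, MgCl2, DTT; started with 25 nM 3′-biotinylated RNA and 60 nM 3H-SAM, run 20 min, quenched with 15 μM cold SAM. Product captured on streptavidin flashplates (2 h, 25° C), counted by scintillation.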

[3] = target: METTL3/METTL14 (Homo sapiens, UniProt Q86U44); test: METTL3-14 Standard Enzyme Assay (METTL3 biochemical assay)
Method in brief: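 Tritium transfer from ³H-SAM (100 nM) to biotinylated RNA (100 nM) captured on streptavidin flashplates and counted by scintillation. Enzyme complex (2.5 nM) with compound, 5 min preincubation, 30 min reaction at ambient temperature, HEPES pH 7.5 buffer, stopped by excess unlabeled SAM.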

[4] = target: PRMT5-MEP50 (Homo sapiens, UniProt O14744); test: PRMT5 Assay (PRMT5 biochemical assay)
Method in brief: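 Radiometric methyltransferase read-out: after 60 min reaction, excess unlabelled SAM (15 μM) stops turnover and biotinylated H4 peptide (100 nM) carrying 3H-methyl from 250 nM 3H-SAM is captured on streptavidin flashplates (2 h, 25° C) for scintillation counting. Enzyme, 2.5 nM PRMT5-MEP50, was preincubated 5 min with compound in pH 8.0 Tris buffer with DTT and Tween.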

[5] = system: MOLM-13 cells; test: MOLM-13 48 Hour Cell Proliferation Assay; format: cell-based; details: Homo sapiens
Method: MOLM-13 (DSMZ) cells were seeded at 1000 cells per well in a volume of 44 μL in a Falcon 384-well tissue culture treated clear bottom microplate in RPMI 1640 media containing 10% fetal bovine serum using a Multidrop Combi (ThermoFisher Scientific). Cells were incubated overnight at 37° C. in a humidified tissue culture incubator. The Mosquito® HTS Liquid Handler was used to make a compound/media intermediate plate by aliquoting 1 μL of compound from the initial compound dilution plate (concentrations ranging from 10.0 mM to 38.0 nM in 100% DMSO) into a V bottom 384-well screen matrix plate containing 49 μL of media containing the appropriate serum (50-fold dilution, 2% DMSO). The Apricot liquid handling system was used to transfer 6.2 μL compounds from the intermediate plate into the Falcon 384-well tissue culture plate containing 44 μL cells (10-point, 4-fold dilution spanning concentrations 25.0 μM to […], 0.25% DMSO final), and placed in a humidified tissue culture incubator at 37° C. After 48 hours, 25 μL of Cell Titer-Glo reagent (Promega) was added to each well using a Multidrop Combi. The plate was protected from light and placed on an IKA plate shaker for at 300 rpm for 10 minutes at room temperature. The plate was read on an EnVision plate reader (Perkin Elmer) using the Ultra Sensitive Luminescence protocol. Data analysis was performed by normalizing the raw luminescence units to an average of the positive control values for staurosporine (100% cell death) and the negative control values for DMSO (0% cell death). An IC50 was calculated using a 4-parameter logistic nonlinear regression model in GraphPad Prism.

[6] = system: MOLM-13 cells; test: MOLM-13 96 Hour Cell Proliferation Assay; format: cell-based; details: Homo sapiens
Method in brief: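 MOLM-13 cells in RPMI 1640 with 10% FBS were plated overnight at 37 °C, then exposed to compound dilutions at 0.25% DMSO final for 96 h. Viability was read by CellTiter-Glo luminescence, normalised to staurosporine (100% death) and DMSO (0% death) controls, and IC50 was fitted by 4-parameter logistic regression.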

[7] = METTL1 biochemical assay, read-out: METTL1 IC50
[8] = read-out: METTL3 IC50, METTL3 biochemical assay
[9] = read-out: PRMT5 IC50, PRMT5 biochemical assay
[10] = read-out: METTL1 IC50, METTL1 biochemical assay
[11] = METTL3 biochemical assay, read-out: METTL3 IC50
[12] = PRMT5 biochemical assay, read-out: PRMT5 IC50

Chain of METTL3/METTL14 (Q86U44 whole entry, species assumed): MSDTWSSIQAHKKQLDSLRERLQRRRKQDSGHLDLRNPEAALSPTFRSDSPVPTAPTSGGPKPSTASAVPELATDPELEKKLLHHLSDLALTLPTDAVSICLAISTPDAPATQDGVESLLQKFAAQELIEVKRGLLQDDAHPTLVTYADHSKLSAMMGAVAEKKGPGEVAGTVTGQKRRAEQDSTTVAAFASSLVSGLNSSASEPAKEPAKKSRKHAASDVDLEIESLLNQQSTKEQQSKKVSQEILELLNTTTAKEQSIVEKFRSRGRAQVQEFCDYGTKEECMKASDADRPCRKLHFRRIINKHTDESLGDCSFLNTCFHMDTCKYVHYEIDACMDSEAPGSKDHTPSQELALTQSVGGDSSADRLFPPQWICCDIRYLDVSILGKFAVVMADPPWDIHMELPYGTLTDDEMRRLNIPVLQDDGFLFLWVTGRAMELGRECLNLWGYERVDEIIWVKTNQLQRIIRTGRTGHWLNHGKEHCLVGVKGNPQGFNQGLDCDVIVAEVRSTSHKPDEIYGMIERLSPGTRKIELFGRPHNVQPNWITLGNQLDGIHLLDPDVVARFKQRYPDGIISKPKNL
Chain of METTL3/METTL14 (Q9HCE5 whole entry partner, species assumed): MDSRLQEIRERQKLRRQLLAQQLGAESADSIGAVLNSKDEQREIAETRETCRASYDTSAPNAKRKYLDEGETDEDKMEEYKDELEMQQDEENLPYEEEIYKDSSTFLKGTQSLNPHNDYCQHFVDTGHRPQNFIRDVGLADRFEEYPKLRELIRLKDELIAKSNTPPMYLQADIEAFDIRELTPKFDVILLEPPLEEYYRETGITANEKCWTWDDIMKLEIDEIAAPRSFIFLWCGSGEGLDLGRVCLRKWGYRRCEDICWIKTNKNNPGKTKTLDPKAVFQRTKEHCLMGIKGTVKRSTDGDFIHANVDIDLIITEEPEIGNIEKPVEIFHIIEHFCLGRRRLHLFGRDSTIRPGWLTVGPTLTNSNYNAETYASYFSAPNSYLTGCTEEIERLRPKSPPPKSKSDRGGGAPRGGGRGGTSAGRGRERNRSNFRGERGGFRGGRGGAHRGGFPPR
Chain of PRMT5-MEP50 (O14744 whole entry): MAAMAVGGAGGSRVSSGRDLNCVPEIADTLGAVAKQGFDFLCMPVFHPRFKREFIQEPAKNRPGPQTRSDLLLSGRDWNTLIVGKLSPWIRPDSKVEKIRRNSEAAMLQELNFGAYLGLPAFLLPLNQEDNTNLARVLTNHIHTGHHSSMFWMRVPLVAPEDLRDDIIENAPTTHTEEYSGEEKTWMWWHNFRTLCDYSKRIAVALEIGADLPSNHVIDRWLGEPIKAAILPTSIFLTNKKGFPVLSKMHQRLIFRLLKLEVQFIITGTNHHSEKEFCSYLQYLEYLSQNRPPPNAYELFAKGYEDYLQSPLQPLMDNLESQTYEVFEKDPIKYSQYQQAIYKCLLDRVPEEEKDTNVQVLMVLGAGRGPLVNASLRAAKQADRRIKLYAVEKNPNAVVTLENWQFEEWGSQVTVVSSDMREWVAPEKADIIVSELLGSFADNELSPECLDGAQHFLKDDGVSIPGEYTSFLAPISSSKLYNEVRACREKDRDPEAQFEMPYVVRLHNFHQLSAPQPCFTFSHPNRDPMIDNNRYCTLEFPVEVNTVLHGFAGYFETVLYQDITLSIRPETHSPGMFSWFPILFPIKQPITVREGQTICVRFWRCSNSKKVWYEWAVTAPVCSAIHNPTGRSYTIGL
Chain of PRMT5-MEP50 (Q9BQA1 whole entry partner): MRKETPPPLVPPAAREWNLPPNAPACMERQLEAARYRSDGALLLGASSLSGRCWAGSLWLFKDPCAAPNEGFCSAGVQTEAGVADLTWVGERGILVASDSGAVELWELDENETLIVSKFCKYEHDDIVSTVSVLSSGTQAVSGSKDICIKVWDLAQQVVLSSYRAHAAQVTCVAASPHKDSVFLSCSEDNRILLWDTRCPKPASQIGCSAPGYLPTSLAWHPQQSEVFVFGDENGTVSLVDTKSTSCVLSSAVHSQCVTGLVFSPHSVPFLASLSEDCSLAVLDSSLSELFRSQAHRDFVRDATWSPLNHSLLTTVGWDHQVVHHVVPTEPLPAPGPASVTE
Chain of METTL1/WDR4 (Q9UBP6 whole entry, species assumed): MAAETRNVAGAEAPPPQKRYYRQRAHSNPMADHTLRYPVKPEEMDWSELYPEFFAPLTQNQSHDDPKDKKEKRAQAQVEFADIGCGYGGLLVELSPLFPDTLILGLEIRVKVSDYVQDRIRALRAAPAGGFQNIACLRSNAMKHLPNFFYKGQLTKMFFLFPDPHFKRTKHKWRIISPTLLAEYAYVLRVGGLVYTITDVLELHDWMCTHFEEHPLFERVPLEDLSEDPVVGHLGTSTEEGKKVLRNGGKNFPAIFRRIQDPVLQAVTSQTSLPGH
Chain of METTL1/WDR4 (P57081 whole entry partner, species assumed): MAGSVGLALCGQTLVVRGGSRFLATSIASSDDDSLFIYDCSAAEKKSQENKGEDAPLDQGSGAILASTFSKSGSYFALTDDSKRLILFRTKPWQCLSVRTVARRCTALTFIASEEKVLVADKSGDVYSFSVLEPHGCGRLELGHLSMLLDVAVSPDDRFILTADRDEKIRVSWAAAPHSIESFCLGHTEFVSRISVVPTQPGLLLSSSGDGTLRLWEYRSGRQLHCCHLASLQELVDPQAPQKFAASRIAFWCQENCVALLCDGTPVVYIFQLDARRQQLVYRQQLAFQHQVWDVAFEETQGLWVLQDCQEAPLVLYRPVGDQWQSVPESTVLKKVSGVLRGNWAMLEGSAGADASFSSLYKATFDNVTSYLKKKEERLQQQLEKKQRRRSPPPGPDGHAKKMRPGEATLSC

| Structure (SMILES) | IC50 [1] | IC50 [2, 7] | IC50 [3, 8] | IC50 [4, 9] | IC50 [2, 10] | IC50 [3, 11] | IC50 [4, 12] | IC50 [2] | IC50 [5] | IC50 ([6]; MOLM-13, 96 h) | IC50 [6] | IC50 [3] | IC50 [4] |
| --- | --- | --- | --- | --- | --- | --- | --- | --- | --- | --- | --- | --- | --- |
| CNc1ccc2ccc(OC[C@H]3O[C@@H](n4cc(-c5ccn(C)n5)c5c(N)ncnc54)[C@H](O)[C@@H]3O)cc2n1 [I-6] | < 1000 nM | > 1000 nM | < 10 nM | < 10 nM | – | – | – | – | – | – | – | – | – |
| CCNc1ccc2ccc(OC[C@H]3O[C@@H](n4cc(C5CCCC5)c5c(N)ncnc54)[C@H](O)[C@@H]3O)cc2n1 [I-8] | < 1000 nM | – | – | – | > 1000 nM | < 10 nM | < 10 nM | – | – | – | – | – | – |
| CNc1ccc2ccc(OC[C@H]3O[C@@H](n4cc(-c5ccccn5)c5c(N)ncnc54)[C@@H](F)[C@@H]3O)cc2n1 [I-9] | 1000 to 10000 nM | > 1000 nM | < 10 nM | 10 to 100 nM | – | – | – | – | – | – | – | – | – |
| CNc1ccc2ccc(OC[C@H]3O[C@@H](n4cc(C5CCCC5)c5c(N)ncnc54)C[C@@H]3O)cc2n1 [I-30, (2R,3S,5R)-5-(4-amino-5-cyclopentyl-7H-pyrrolo[2,3-d]pyrimidin-7-yl)-2-(((2-(methylamino)quinolin-7-yl)oxy)methyl)tetrahydrofuran-3-ol] | 1000 to 10000 nM | – | – | – | – | < 10 nM | > 1000 nM | > 1000 nM | 1 to 10 µM | < 1000 nM | – | – | – |
| CN(C)c1ccc2ccc(OC[C@H]3O[C@@H](n4cc(C5CCCC5)c5c(N)ncnc54)[C@H](O)[C@@H]3O)cc2n1 [I-42] | 1000 to 10000 nM | – | – | – | > 1000 nM | < 10 nM | 10 to 100 nM | – | 1 to 10 µM | 1000 to 10000 nM | – | – | – |
| CNc1ccc2ccc(OC[C@H]3O[C@@H](n4cc(Cl)c5c(N)ncnc54)[C@@H](F)[C@@H]3O)cc2n1 [I-45, (2R,3R,4S,5R)-5-(4-amino-5-chloro-7H-pyrrolo[2,3-d]pyrimidin-7-yl)-4-fluoro-2-(((2-(methylamino)quinolin-7-yl)oxy)methyl)tetrahydrofuran-3-ol] | 1000 to 10000 nM | – | – | – | – | < 10 nM | 10 to 100 nM | > 1000 nM | 1 to 10 µM | 1000 to 10000 nM | – | – | – |
| CNc1ccc2ccc(OC[C@H]3O[C@@H](n4cc(Br)c5c(N)ncnc54)[C@@H](F)[C@@H]3O)cc2n1 [I-46] | 1000 to 10000 nM | – | – | – | > 1000 nM | < 10 nM | 10 to 100 nM | – | 1 to 10 µM | < 1000 nM | – | – | – |
| CNc1ccc2ccc(OC[C@H]3O[C@@H](n4cc(Cl)c5c(N)ncnc54)C[C@@H]3O)cc2n1 [I-48] | 1000 to 10000 nM | – | – | – | > 1000 nM | < 10 nM | 100 to 1000 nM | – | > 10 µM | 1000 to 10000 nM | – | – | – |
| CNc1ccc2ccc(CC[C@H]3C[C@@H](n4cc(C5CCCC5)c5c(N)ncnc54)[C@H](O)[C@@H]3O)cc2n1 [I-55] | 1000 to 10000 nM | – | – | – | > 1000 nM | < 10 nM | < 10 nM | – | 1 to 10 µM | < 1000 nM | – | – | – |
| Nc1ncnc2c1ccn2[C@@H]1O[C@H](COc2ccc3ccc(N4CCCC4)nc3c2)[C@@H](O)[C@H]1O [I-75] | 1000 to 10000 nM | – | – | – | > 1000 nM | 10 to 100 nM | 10 to 100 nM | – | > 10 µM | – | – | – | – |
| CNc1ccc2ccc(OC[C@H]3O[C@@H](n4cc(-c5ncco5)c5c(N)ncnc54)[C@@H](F)[C@@H]3O)cc2n1 [I-150] | < 1000 nM | – | < 10 nM | 10 to 100 nM | – | – | – | – | < 1 µM | – | < 1000 nM | – | – |
| CNc1ccc2ccc(OC[C@H]3O[C@@H](n4cc([C@H]5CCCO5)c5c(N)ncnc54)[C@@H](F)[C@@H]3O)cc2n1 [I-151] | 1000 to 10000 nM | – | – | – | – | < 10 nM | 100 to 1000 nM | – | 1 to 10 µM | < 1000 nM | – | – | – |
| CNc1ccc2ccc(OC[C@H]3O[C@@H](n4cc([C@@H]5CCCO5)c5c(N)ncnc54)[C@@H](F)[C@@H]3O)cc2n1 [I-152] | < 1000 nM | – | – | – | – | < 10 nM | > 1000 nM | – | 1 to 10 µM | < 1000 nM | – | – | – |
| Nc1ncnc2c1c([C@@H]1CCCO1)cn2[C@@H]1O[C@H](COc2ccc3ccc(N4CCC4)nc3c2)[C@@H](O)[C@@H]1F [I-158] | < 1000 nM | – | – | – | – | < 10 nM | – | – | 1 to 10 µM | < 1000 nM | – | – | – |
| Cn1ccc(-c2cn([C@H]3C[C@H](O)[C@@H](COc4ccc5ccc(N6CCC6)nc5c4)O3)c3ncnc(N)c23)n1 [I-164] | < 1000 nM | – | – | – | – | – | – | – | 1 to 10 µM | – | < 1000 nM | < 10 nM | > 1000 nM |
| Cn1ccc(-c2cn([C@@H]3C[C@H](COc4ccc5ccc(N6CCC6)nc5c4)[C@@H](O)C3)c3ncnc(N)c23)n1 [I-169, (1S,2R,4R)-4-[4-amino-5-(1-methyl-1H-pyrazol-3-yl)-7H-pyrrolo[2,3-d]pyrimidin-7-yl]-2-({[2-(azetidin-1-yl)quinolin-7-yl]oxy}methyl)cyclopentan-1-ol] | 1000 to 10000 nM | – | – | – | – | – | – | – | – | – | 1000 to 10000 nM | < 10 nM | > 1000 nM |
| Nc1ncnc2c1c(-n1cccn1)cn2[C@H]1C[C@H](O)[C@@H](COc2ccc3ccc(N4CCC4)nc3c2)O1 [I-170] | < 1000 nM | – | – | – | – | – | – | – | 1 to 10 µM | – | 1000 to 10000 nM | < 10 nM | > 1000 nM |
| Cn1ccc(-c2cn([C@@H]3O[C@H](COc4ccc5ccc(N6CC(O)C6)nc5c4)[C@@H](O)[C@@H]3F)c3ncnc(N)c23)n1 [I-171] | 1000 to 10000 nM | – | – | – | – | – | – | – | 1 to 10 µM | – | 1000 to 10000 nM | < 10 nM | > 1000 nM |
| Cn1ccc(-c2cn([C@H]3C[C@H](O)[C@@H](COc4ccc5ccc(NC6CC6)nc5c4)O3)c3ncnc(N)c23)n1 [I-179] | 1000 to 10000 nM | – | – | – | – | – | – | – | 1 to 10 µM | – | < 1000 nM | < 10 nM | 100 to 1000 nM |
| Cn1ccc(-c2cn([C@@H]3O[C@H](COc4ccc5ccc(NC6CCC6)nc5c4)[C@@H](O)[C@@H]3F)c3ncnc(N)c23)n1 [I-183] | < 1000 nM | – | – | – | – | – | – | – | < 1 µM | – | < 1000 nM | < 10 nM | > 1000 nM |
| Cn1ccc(-c2cn([C@@H]3C[C@H](CCc4ccc5ccc(N6CCC6)nc5c4)[C@@H](O)C3)c3ncnc(N)c23)n1 [I-205] | 1000 to 10000 nM | – | – | – | – | – | – | – | – | – | < 1000 nM | < 10 nM | > 1000 nM |
| Cc1ccn(-c2cn([C@@H]3O[C@H](COc4ccc5ccc(N6CCC6)nc5c4)[C@@H](O)[C@@H]3F)c3ncnc(N)c23)n1 [I-218] | 1000 to 10000 nM | – | – | – | – | – | – | – | – | – | 1000 to 10000 nM | < 10 nM | > 1000 nM |
| Cc1coc(-c2cn([C@@H]3O[C@H](COc4ccc5ccc(N6CCC6)nc5c4)[C@@H](O)[C@@H]3F)c3ncnc(N)c23)n1 [I-220] | < 1000 nM | – | – | – | – | – | – | – | 1 to 10 µM | – | < 1000 nM | < 10 nM | > 1000 nM |
| Nc1ncnc2c1c(-n1cccn1)cn2[C@@H]1O[C@H](COc2ccc3ccc(N4CCC4)nc3c2)[C@@H](O)[C@@H]1F [I-222] | < 1000 nM | – | – | – | – | – | – | – | < 1 µM | – | < 1000 nM | < 10 nM | > 1000 nM |
| CCc1cc(NC)c2ccc(OC[C@H]3O[C@@H](n4cc(-c5ccn(C)n5)c5c(N)ncnc54)[C@@H](F)[C@@H]3O)cc2n1 [I-232] | > 10000 nM | > 1000 nM | – | – | – | – | – | – | > 10 µM | – | – | < 10 nM | 100 to 1000 nM |

— US20230027361A1, “METTL3 MODULATORS” (priority 2019, published 2023)
